{"source": "patent US7875614B2", "about": "“Phthalazinones” (Merck Patent GmbH, priority 2005, dated 2011)", "tested_on": "cells", "test": "cell cycle effect (G2/M)", "assay_type": "cell-based", "details": "cell line not stated; \"Experiments show that\""}
{"smiles": "N=C(N)c1ccc(OCCCCCOc2ccc(C(=N)N)cc2)cc1", "note": "[pentamidine]", "values": [{"measurement": "effect on cell cycle", "result": "maintain cells in the G2/M cell cycle"}]}
